Assay results: patent US9687479B2, “Multisubstituted aromatic compounds as serine protease inhibitors” (VERSEON CORPORATION, priority 2013, dated 2017)

Target: Human thrombin (Homo sapiens (Human), UniProt P00734)
Experiment: Thrombin protease activity inhibition assay (chromogenic substrate S-2238)
Format: biochemical
Details: 3 nM thrombin, 125 μM S-2238, 10 min pre-incubation, RT
Procedure: The thrombin activity reported herein (e.g., Table A) was obtained as follows. […] Thrombin was assayed in buffer containing 0.05 M Tris (pH 7.4), 0.015 M NaCl and 0.01% PEG-8000. The final concentration of enzyme used was 3 nM thrombin. […] All assays were performed in 96-well microtiter plates at room temperature (RT). […] Inhibitor IC50 values were determined by adding test compound as ten point, three-fold serial dilutions in buffer solution, as known in the art. The plate was read at 10 minutes after substrate addition. The IC50 was calculated by plotting the percent (%) inhibition against compound concentration and fitting the data to a constrained four parameter sigmoidal curve, as known in the art.

Row | IC50 [µM] | SMILES
1 | 1 to 10 | O=c1c(-c2cc(NCc3ccc(Cl)s3)[nH]n2)cccn1Cc1ccoc1 [Cmpd 223, 3-(5-[(5-chlorothiophen-2-yl)methyl]amino-1H-pyrazol-3-yl)-1-(furan-3-ylmethyl)-1,2-dihydropyridin-2-one]
2 | > 100 | O=c1c(-c2cc(NCc3ccc(Cl)s3)[nH]n2)cccn1Cc1cccc2ccccc12 [Cmpd 224, 3-(5-[(5-chlorothiophen-2-yl)methyl]amino-1H-pyrazol-3-yl)-1-(naphthalen-1-ylmethyl)-1,2-dihydropyridin-2-one]
3 | > 100 | COCCn1cccc(-c2cc(NCc3ccc(Cl)s3)n(C(=O)c3ccoc3)n2)c1=O [Cmpd 171, 3-(5-[(5-chlorothiophen-2-yl)methyl]amino-1-[(furan-3-yl)carbonyl]-1H-pyrazol-3-yl)-1-(2-methoxyethyl)-1,2-dihydropyridin-2-one]
4 | < 0.1 | COc1ccccc1C(=O)n1nc(-c2cccn(Cc3cccc(Cl)c3)c2=O)cc1NCc1ccc(Cl)s1 [Cmpd 32, 1-[(3-chlorophenyl)methyl]-3-(5-[(5-chlorothiophen-2-yl)methyl]amino-1-[(2-methoxyphenyl)carbonyl]-1H-pyrazol-3-yl)-1,2-dihydropyridin-2-one]
5 | < 0.1 | CC(C)(C)C(=O)n1nc(-c2cccn(Cc3ccccc3Cl)c2=O)cc1NCc1ccc(Cl)s1 [Cmpd 27, 1-[(2-chlorophenyl)methyl]-3-(5-[(5-chlorothiophen-2-yl)methyl]amino-1-(2,2-dimethylpropanoyl)-1H-pyrazol-3-yl)-1,2-dihydropyridin-2-one]
6 | 1 to 10 | O=c1c(-c2cc(NCc3ccc(Cl)s3)[nH]n2)cccn1Cc1ccccc1 [Cmpd 54, 1-benzyl-3-(5-[(5-chlorothiophen-2-yl)methyl]amino-1H-pyrazol-3-yl)-1,2-dihydropyridin-2-one]
7 | < 0.1 | O=C(c1ccco1)n1nc(-c2cccn(Cc3ncccn3)c2=O)cc1NCc1ccc(Cl)s1 [Cmpd 167, 3-(5-[(5-chlorothiophen-2-yl)methyl]amino-1-[(furan-2-yl)carbonyl]-1H-pyrazol-3-yl)-1-(pyrimidin-2-ylmethyl)-1,2-dihydropyridin-2-one]
8 | > 100 | COc1ccc(C(=O)n2nc(-c3cccn(Cc4ncccn4)c3=O)cc2NCc2ccc(Cl)s2)c(OC)c1 [Cmpd 128, 3-(5-[(5-chlorothiophen-2-yl)methyl]amino-1-[(2,4-dimethoxyphenyl)carbonyl]-1H-pyrazol-3-yl)-1-(pyrimidin-2-ylmethyl)-1,2-dihydropyridin-2-one]
9 | < 0.1 | Nc1ccccc1C(=O)n1nc(-c2ccc[nH]c2=O)cc1NCc1ccc(Cl)s1 [Cmpd 241, 3-1-[(2-aminophenyl)carbonyl]-5-[(5-chlorothiophen-2-yl)methyl]amino-1H-pyrazol-3-yl-1,2-dihydropyridin-2-one]
10 | < 0.1 | COc1ccccc1C(=O)n1nc(-c2cccn(Cc3ccoc3)c2=O)cc1NCc1ccc(Cl)s1 [Cmpd 136, 3-(5-[(5-chlorothiophen-2-yl)methyl]amino-1-[(2-methoxyphenyl)carbonyl]-1H-pyrazol-3-yl)-1-(furan-3-ylmethyl)-1,2-dihydropyridin-2-one]
11 | < 0.1 | COc1ccccc1C(=O)n1nc(-c2cccn(C)c2=O)cc1NCc1ccc(Cl)s1 [Cmpd 147, 3-(5-[(5-chlorothiophen-2-yl)methyl]amino-1-[(2-methoxyphenyl)carbonyl]-1H-pyrazol-3-yl)-1-methyl-1,2-dihydropyridin-2-one]
12 | < 0.1 | O=C(c1ccoc1)n1nc(-c2cccn(Cc3ccoc3)c2=O)cc1NCc1ccc(Cl)s1 [Cmpd 173, 3-(5-[(5-chlorothiophen-2-yl)methyl]amino-1-[(furan-3-yl)carbonyl]-1H-pyrazol-3-yl)-1-(furan-3-ylmethyl)-1,2-dihydropyridin-2-one]
13 | 10 to 100 | CCOC(=O)Cn1cccc(-c2cc(NCc3ccc(Cl)s3)n[nH]2)c1=O [Cmpd 260, ethyl 2-[3-(5-[(5-chlorothiophen-2-yl)methyl]amino-1H-pyrazol-3-yl)-2-oxo-1,2-dihydropyridin-1-yl]acetate]
14 | < 0.1 | CC1(C(=O)n2nc(-c3cccn(Cc4ccncc4)c3=O)cc2NCc2ccc(Cl)s2)CCOCC1 [Cmpd 155, 3-(5-[(5-chlorothiophen-2-yl)methyl]amino-1-[(4-methyloxan-4-yl)carbonyl]-1H-pyrazol-3-yl)-1-(pyridin-4-ylmethyl)-1,2-dihydropyridin-2-one]
15 | < 0.1 | O=C(c1ccccc1Cl)n1nc(-c2cccn(Cc3ccccc3)c2=O)cc1NCc1ccc(Cl)s1 [Cmpd 55, 1-benzyl-3-1-[(2-chlorophenyl)carbonyl]-5-[(5-chlorothiophen-2-yl)methyl]amino-1H-pyrazol-3-yl-1,2-dihydropyridin-2-one]
16 | > 100 | O=C(c1ccco1)n1nc(-c2cccn(Cc3cccnn3)c2=O)cc1NCc1ccc(Cl)s1 [Cmpd 163, 3-(5-[(5-chlorothiophen-2-yl)methyl]amino-1-[(furan-2-yl)carbonyl]-1H-pyrazol-3-yl)-1-(pyridazin-3-ylmethyl)-1,2-dihydropyridin-2-one]

Row | IC50 [µM] | SMILES
17 | < 0.1 | Cn1cccc(-c2cc(NCc3ccc(Cl)s3)n(C(=O)C(C)(C)C)n2)c1=O [Cmpd 90, 3-(5-[(5-chlorothiophen-2-yl)methyl]amino-1-(2,2-dimethylpropanoyl)-1H-pyrazol-3-yl)-1-methyl-1,2-dihydropyridin-2-one]
18 | < 0.1 | O=C(c1ccc(N2CCOCC2)cc1)n1nc(-c2cccn(Cc3cccs3)c2=O)cc1NCc1ccc(Cl)s1 [Cmpd 216, 3-(5-[(5-chlorothiophen-2-yl)methyl]amino-1-[4-(morpholin-4-yl)phenyl]carbonyl-1H-pyrazol-3-yl)-1-(thiophen-2-ylmethyl)-1,2-dihydropyridin-2-one]
19 | < 0.1 | CCOC(=O)Cn1cccc(-c2cc(NCc3ccc(Cl)s3)n(C(=O)c3ccccc3OC)n2)c1=O [Cmpd 258, ethyl 2-[3-(5-[(5-chlorothiophen-2-yl)methyl]amino-1-[(2-methoxyphenyl)carbonyl]-1H-pyrazol-3-yl)-2-oxo-1,2-dihydropyridin-1-yl]acetate]
20 | 10 to 100 | O=c1c(-c2cc(NCc3ccc(Cl)s3)[nH]n2)cccn1CCN1CCOCC1 [Cmpd 234, 3-(5-[(5-chlorothiophen-2-yl)methyl]amino-1H-pyrazol-3-yl)-1-[2-(morpholin-4-yl)ethyl]-1,2-dihydropyridin-2-one]
21 | < 0.1 | O=C(c1ccoc1)n1nc(-c2cccn(Cc3ccc(Cl)cc3)c2=O)cc1NCc1ccc(Cl)s1 [Cmpd 37, 1-[(4-chlorophenyl)methyl]-3-(5-[(5-chlorothiophen-2-yl)methyl]amino-1-[(furan-3-yl)carbonyl]-1H-pyrazol-3-yl)-1,2-dihydropyridin-2-one]
22 | < 0.1 | O=C(c1ccco1)n1nc(-c2cccn(Cc3ccoc3)c2=O)cc1NCc1ccc(Cl)s1 [Cmpd 162, 3-(5-[(5-chlorothiophen-2-yl)methyl]amino-1-[(furan-2-yl)carbonyl]-1H-pyrazol-3-yl)-1-(furan-3-ylmethyl)-1,2-dihydropyridin-2-one]
23 | < 0.1 | O=C(c1cccs1)n1nc(-c2cccn(Cc3cccnc3)c2=O)cc1NCc1ccc(Cl)s1 [Cmpd 187, 3-(5-[(5-chlorothiophen-2-yl)methyl]amino-1-[(thiophen-2-yl)carbonyl]-1H-pyrazol-3-yl)-1-(pyridin-3-ylmethyl)-1,2-dihydropyridin-2-one]
24 | < 0.1 | O=C(c1cccc2c1OCCO2)n1nc(-c2cccn(Cc3ccccc3)c2=O)cc1NCc1ccc(Cl)s1 [Cmpd 45, 1-benzyl-3-(5-[(5-chlorothiophen-2-yl)methyl]amino-1-[(2,3-dihydro-1,4-benzodioxin-5-yl)carbonyl]-1H-pyrazol-3-yl)-1,2-dihydropyridin-2-one]
25 | < 0.1 | COc1ccccc1C(=O)n1nc(-c2cccn(Cc3ccc(Cl)s3)c2=O)cc1NCc1ccc(Cl)s1 [Cmpd 40, 1-[(5-chlorothiophen-2-yl)methyl]-3-(5-[(5-chlorothiophen-2-yl)methyl]amino-1-[(2-methoxyphenyl)carbonyl]-1H-pyrazol-3-yl)-1,2-dihydropyridin-2-one]
26 | 1 to 10 | O=c1c(-c2cc(NCc3ccc(Cl)s3)n[nH]2)cccn1Cc1cccs1 [Cmpd 231, 3-(5-[(5-chlorothiophen-2-yl)methyl]amino-1H-pyrazol-3-yl)-1-(thiophen-2-ylmethyl)-1,2-dihydropyridin-2-one]
27 | < 0.1 | O=C(c1cccs1)n1nc(-c2cccn(Cc3ccsc3)c2=O)cc1NCc1ccc(Cl)s1 [Cmpd 191, 3-(5-[(5-chlorothiophen-2-yl)methyl]amino-1-[(thiophen-2-yl)carbonyl]-1H-pyrazol-3-yl)-1-(thiophen-3-ylmethyl)-1,2-dihydropyridin-2-one]
28 | 10 to 100 | O=c1c(-c2cc(NCc3ccc(Cl)s3)[nH]n2)cccn1Cc1cccnn1 [Cmpd 226, 3-(5-[(5-chlorothiophen-2-yl)methyl]amino-1H-pyrazol-3-yl)-1-(pyridazin-3-ylmethyl)-1,2-dihydropyridin-2-one]
29 | < 0.1 | CC(C)(C)C(=O)n1nc(-c2cccn(Cc3ccccn3)c2=O)cc1NCc1ccc(Cl)s1 [Cmpd 82, 3-(5-[(5-chlorothiophen-2-yl)methyl]amino-1-(2,2-dimethylpropanoyl)-1H-pyrazol-3-yl)-1-(pyridin-2-ylmethyl)-1,2-dihydropyridin-2-one]
30 | 10 to 100 | O=c1c(-c2cc(NCc3ccc(Cl)s3)[nH]n2)cccn1CCc1ccccc1 [Cmpd 221, 3-(5-[(5-chlorothiophen-2-yl)methyl]amino-1H-pyrazol-3-yl)-1-(2-phenylethyl)-1,2-dihydropyridin-2-one]
31 | 10 to 100 | Cn1cccc(-c2cc(NCc3ccc(Cl)s3)n[nH]2)c1=O [Cmpd 236, 3-(5-[(5-chlorothiophen-2-yl)methyl]amino-1H-pyrazol-3-yl)-1-methyl-1,2-dihydropyridin-2-one]
